Laboratory results: patent publication US4473583A, “Compositions containing certain derivatives of 4-phenyl-4-oxobuten-2-oic acid and methods of treatment using them” (Roussel UCLAF, priority 1981, dated 1984)

Assays:
acute toxicity (LD50) = details: mouse, in vivo; mice, oral
Procedure: (3) Determination of the Acute Toxicity
The LD50 was evaluated after the administration of the products orally to mice.

stomach ulcers = test: anti-ulcer activity, stress ulcer (stress and cold); assay type: in vivo; details: female rats, stress and cold (8° C., two hours), 10 mg/kg through an esophageal tube, 2 hours before stress
Procedure: (2) Determination of the anti-ulcer activity Stress Ulcer
The technique consists of inducing stomach ulcers by stress in rats (stress and cold). The technique used is described by E. C. SENAY and R. J. LEVINE, Proc. Soc. Exp. Biol. 124, 1221 (1967).
Female rats of 150 g (5 animals per lot) were used which has been fasting for 48 hours with water ad libitum and glucose solution for 8 hours. Through an esophageal tube, the animals received a test compound, or a solution of 0.5% carboxy methyl cellulose in the case of the control animals. Two hours later, the animals were bundled in a jacket of netting. Their paws were bound and the entire unit was placed in a refrigerator at 8° C. for two hours. The rats were freed and killed by ether.
Their stomachs were removed, opened along the greater curvature and examined with a binocular magnifier. The seriousness of the lesions was graded from 1 to 3 for each stomach.
For each lot of rats, the average intensity of the ulcerations was calculated. The degree of ulceration for test animals was compared with the control animals for each lot.

[1] = test system: total acidity of the gastric secretions; test: anti-gastric secretion activity (pylorus ligation, Shay technique); assay type: in vivo; details: male rats, pylorus ligated, 10 mg/kg intraduodenally, 3 hours
Procedure: (1) Determination of the anti-gastric secretion activity
The technique used is described by H. SHAY et al. in Gastroenterology 5, 43, 1945.
Male rats were used having a weight of about 200 g (10 animals per lot), and were kept without food for 48 hours but allowed a 8% gluclose solution ad libitum. After the rats were slightly anesthetized with ether, the pylorus of each was ligated. After the end of the operation, the product to be tested in different doses or, in the case of the control animals a solution of 0.5% carboxymethyl cellulose, was administered intraduodenally, after which the abdominal incision sutured.
Three hours later, the animals were sacrified and their stomachs removed after ligating the esophagus. The gastric juice was removed and centrifuged. The volume of gastric juice obtained was then determined and the total acidity of the gastric juice was obtained by titrating a 100 μl sample of gastric juice to a pH of 7 by means of 1/10 N sodium hydroxide solution.
The percentages of the variation of the total acidity of the gastric secretions, between test animals and control animals were calculated and are set forth in the table appearing below.

SMILES	LD50 (acute toxicity (LD50))	Anti-ulcer activity: Ulceration (% variation as compared with the controls) (stomach ulcers)	Anti-secretion activity: Acid Concentration (% variation as compared with the controls) [1]
O=C(O)/C=C/C(=O)c1ccccc1 [Example 1, (E) 4-phenyl-4-oxobuten-2-oic acid]	250 mg/kg	-54%	-66%
Cc1ccc(C(=O)C=CC(=O)O)cc1 [Example 2, 4-tolyl-4-oxobuten-2-oic acid]	250 mg/kg	-39%	-61%
O=C(O)/C=C\C(=O)c1ccccc1 [Example 3, (Z) 4-phenyl-4-oxobuten-2-oic acid]	370 mg/kg	-93%	-81%
